Patent publication US20060217440A1, “Porcess for production of 2-cyano-3-hydroxy-n-(4-trifluoromethylphenyl)hept-2-en-6-ynamide and process for production of polymorphs thereof” (priority 2003, published 2006)

Experiment: Stability of the crystal forms based on DSC endothermic test
Assay type: physicochemical
Conditions: analysis based on measurement results of a DSC endothermic test; rank order among polymorphs of compound (I)
Excerpt: FIGS. 1, 4 and 7 show the IR (KBr) spectrum, DSC endothermic curve and X-ray diffraction pattern of the crystals, respectively.
FIGS. 2, 5 and 8 show the IR (KBr) spectrum, DSC endothermic curve and X-ray diffraction pattern of the crystals, respectively.
FIGS. 3, 6 and 9 show the […]

C#CCC/C(O)=C(\C#N)C(=O)Nc1ccc(C(F)(F)F)cc1 [B-form crystals, 2-cyano-3-hydroxy-N-(4-trifluoromethylphenyl) hept-2-en-6-ynamide]
stability order of the crystal forms: B-form crystals>C-form crystals>A-form crystals
